Data taken from ChEMBL document CHEMBL3046014, “Quinolone derivatives as antitubercular drugs” (Med Chem Res, 2013).
≈ marks a conversion by molar mass, not a printed value.

How the values were obtained:
[1] = test system: Mycobacterium tuberculosis; assay: Antitubercular activity against Mycobacterium tuberculosis; assay type: functional, organism-based
[2] = test system: Mycobacterium avium; assay: Antitubercular activity against Mycobacterium avium by MAC assay; assay type: functional
[3] = Elimination half life in healthy Homo sapiens (human); assay type: ADME, organism-based; conditions: in vivo, read-out: beta t1/2 (converted)
[4] = Oral bioavailability in healthy Homo sapiens (human); assay type: ADME, organism-based; conditions: in vivo
[5] = species on record: Homo sapiens; assay: Toxicity in healthy Homo sapiens (human); assay type: organism-based; conditions: in vivo
[6] = test system: Mycobacterium tuberculosis; assay: Antitubercular activity against Mycobacterium tuberculosis H37Rv; assay type: functional
[7] = Drug uptake in Mus musculus (mouse) serum at 100 mg/kg, po at 0.25 hr; assay type: ADME, organism-based; set-up: dose 100 mg/kg, route oral; conditions: read-out: Drug uptake
[8] = test system: Mycobacterium tuberculosis; assay: Antitubercular activity against Mycobacterium tuberculosis CSU93

SMILES | MIC90 [1] [µg/mL] | IC50 [1] [µg/mL] | also measured
C[C@H]1COc2c(N3CCN(C)CC3)c(F)cc3c(=O)c(C(=O)O)cn1c23.C[C@H]1COc2c(N3CCN(C)CC3)c(F)cc3c(=O)c(C(=O)O)cn1c23.O [LEVOFLOXACIN] | 1 | – | –
OC(C1=CCC=CN1)c1cc(-c2ccc(Cl)cc2)nc2c1ccc1ccccc12 (stereo not drawn) | – | – | MIC50 [2]: 1 µg/mL (≈ 2.51 µM)
C[C@@H]1CN(c2c(F)c(N)c3c(=O)c(C(=O)O)cn(C4CC4)c3c2F)C[C@H](C)N1 [SPARFLOXACIN] | – | 0.25 (≈ 0.637 µM) | –
C[C@H]1NCc2cc(-c3ccc4c(=O)c(C(=O)O)cn(C5CC5)c4c3OC(F)F)ccc21 [GARENOXACIN] | 0.0625 (≈ 0.147 µM) | – | –
OC(c1cc(C(F)(F)F)nc2c(C(F)(F)F)cccc12)C1CCCCN1 (stereo not drawn) [MEFLOQUINE] | – | – | MIC50 [2]: 16 µg/mL (≈ 42.3 µM)
O=C(O)c1cn(C2CC2)c2cc(N3CCNCC3)c(F)cc2c1=O [CIPROFLOXACIN] | – | 0.5 (≈ 1.51 µM) | –
N[C@@H]1CN(c2c(F)cc3c(=O)c(C(=O)O)cn([C@@H]4C[C@@H]4F)c3c2Cl)CC12CC2 [SITAFLOXACIN ANHYDROUS] | 0.2 (≈ 0.488 µM) | – | half-life [3]: 4.4 h; bioavailability [4]: ≥ 70%
CO/N=C1\CN(c2nc3c(cc2F)c(=O)c(C(=O)O)cn3C2CC2)CC1CN (stereo not drawn) [GEMIFLOXACIN] | 8 (≈ 20.5 µM) | – | half-life [3]: 7.4 h; MNTD [5]: 800 mg; bioavailability [4]: 70%
CC1COc2c(N3CCN(C)CC3)c(F)cc3c(=O)c(C(=O)O)cn1c23 (racemic) [OFLOXACIN] | – | 0.5 (≈ 1.38 µM) | –
C[C@H]1CN(c2c(F)cc3c(=O)c(C(=O)O)cn(C4CC4)c3c2OC(F)(F)F)CCN1.Cl | – | 0.25 | –
OC(C1=CCC=CN1)c1cc(C2C3CC4CC(C3)CC2C4)nc2c1ccc1ccccc12 (stereo not drawn) | – | – | MIC50 [2]: 2 µg/mL (≈ 4.73 µM)
CCn1cc(C(=O)O)c(=O)c2cc(F)c(N3CCNCC3)cc21 [NORFLOXACIN] | – | 8 (≈ 25.1 µM) | –
N[C@@H]1[C@H]2CN(c3nc4c(cc3F)c(=O)c(C(=O)O)cn4-c3ccc(F)cc3F)C[C@@H]12 [TROVAFLOXACIN] | 1 (≈ 2.4 µM) | – | –
COc1nc2ccc(Br)cc2cc1[C@@H](c1ccccc1)[C@@](O)(CCN(C)C)c1cccc2ccccc12 [BEDAQUILINE] | – | – | MIC [6]: < 0.5 µg/mL
Cc1c(F)c(N2CCNC(C)C2)cc2c1c(=O)c(C(=O)O)cn2C1CC1 (stereo not drawn) [GREPAFLOXACIN] | 1 (≈ 2.78 µM) | – | –
COc1c(N2C[C@@H]3CCCN[C@@H]3C2)c(F)cc2c(=O)c(C(=O)O)cn(C3CC3)c12 [MOXIFLOXACIN] | – | – | concentration at 0.25 h [7]: 7800 ng/mL; MIC [8]: 0.25 µg/mL (≈ 0.623 µM)
CNC1CCCN(c2c(F)cc3c(=O)c(C(=O)O)cn(C4CC4)c3c2OC)C1 (stereo not drawn) [BALOFLOXACIN] | – | 0.5 (≈ 1.28 µM) | –
